The source of these data is patent US11202854B2, “Disintegrin variants and uses thereof” (National Taiwan University, priority 2017, dated 2021).

The test system of series [1] is platelets.
Experimental: Disintegrin and its variants of Example 1 were subject to test for their abilities in suppressing platelet aggregation mediated by αIIbβ3. Briefly, venous blood samples from healthy donors were collected and platelet-rich plasma was prepared therefrom. The platelet-rich plasma was then incubated with the stimulant (e.g., collagen or AP2) that triggered plug formation, then with the disintegrin and/or its variants of Example 1.
Another series is described as follows: Tail bleeding time. In kind it is in vivo, mouse. Conditions: 0.18 mg/Kg, mice. The procedure: Male ICR mice weighing 20-30 g were used in all studies. Animals were allowed to access food and water ad libitum under controlled temperature (20±1° C.) and humidity (55%±5%). The animal experimental protocols were approved by the Laboratory Animal Use Committee of College of Medicine, National Taiwan University.
Male ICR mice were intravenously injected through a lateral tail vein of the mouse with agents. A sharp cut of 2 mm segment from the distal tail was made 5 min after injection. The amputated tail was immediately placed into a tube filled with isotonic saline at 37° C. Bleeding time was recorded for a maximum of 10 min and the end point was the arrest of bleeding.

Series [2] relates to platelets. Kind of series: Ex vivo collagen-induced platelet aggregation response. In kind it is in vivo, mouse. Conditions: FIG. 1 panels B and C.
The target in another series is T1, integrin αIIbβ3 (Homo sapiens, UniProt P05106+P08514).
T1 construct: host or cells: CHO (Chinese hamster ovary) cells
Kind of series: Cell adhesion assay: CHO-αIIbβ3 cells to fibrinogen. It is filed as cell-based. As to conditions: Table 3. The procedure:
(§1) A cell adhesion assay was used to determine the inhibitory activity of Rho, TMV, and their variants and was conducted according to previously described protocols. 96-well microtiter plates (Costar; Corning) were coated with 100 μL PBS buffer containing 200 μg/mL fibrinogen or 50 μg/mL fibronectin, and incubated overnight at 4° C. Non-specific protein binding sites were blocked by incubating each well with 200 μL of heat-denatured 1% bovine serum albumin (BSA) (Calbiochem) at room temperature for 1.5 h. The heat-denatured BSA was discarded and each well was washed twice with 200 μL PBS.
(§2) Chinese hamster ovary (CHO) cells that expressed integrins αvβ3 (CHO-αvβ3) and αIIbβ3 (CHO-αIIbβ3) were kindly provided by Dr. Y. Takada (Scripps Research Institute) and maintained in Dulbecco's modified Eagle's medium (18, 27). Human erythroleukemia K562 cell was purchased from ATCC and cultured in Roswell Park Memorial Institute (RPMI)—1640 medium containing 10% fetal bovine serum (FBS). Harvested K562 cells were resuspended in RPMI-1640 medium containing 5% FBS. […]
(§3) The adhesions of CHO-αIIbβ3 cells to fibrinogen, CHO-αvβ3 cells to fibrinogen, and K562 cells to fibronectin were used to determine the inhibitory activities of tested protein to integrins αIIbβ3, αvβ3, and α5β1. […] The resulting absorbance was read at 600 nm and the readings were correlated with the number of adhering cells. […]

The test system of series [3] is platelets. Kind of series: Platelet aggregation (inducer not stated). As to conditions: Table 4; inducer not given. In kind it is cell-based, human. The procedure: (§4) Blood was collected from healthy volunteers who had not taken any medication for two weeks prior to the study. Informed consents were obtained from each and every participants, and the study was approved by the institutional review board of National Taiwan University Hospital. Preparation of human PS was performed in accordance with procedures described previously (Huang et al., Experimental haemtology. 2008 36(12), 1704-1713).
(§5) Disintegrin and its variants of Example 1 were subject to test for their abilities in suppressing platelet aggregation mediated by αIIbβ3. Briefly, venous blood samples from healthy donors were collected and platelet-rich plasma was prepared therefrom. The platelet-rich plasma was then incubated with the stimulant (e.g., collagen or […]) that triggered plug formation, then with the disintegrin and/or its variants of Example 1.

Another series deals with integrin αvβ3. Kind of series: Cell adhesion assay: CHO-αvβ3 cells to fibrinogen. In kind it is cell-based. As to conditions: CHO-αvβ3 cells to immobilized fibrinogen. The procedure:
as §1, §2, §3

The test system of series [4] is platelets. Kind of series: ADP-induced platelet aggregation in platelet-rich plasma. In kind it is cell-based, human. The procedure: as §4, §5

Values after ≈ are worked out from the molar mass of the structure shown. Where two headings read alike, the source gives them in different places. Positions of bridges follow the written chain, without caps; N, C: chain ends. Non-standard residues stand in square brackets, D forms with d. Residues, ends and D or L forms follow the SMILES beside them. hArg = N=C(N)NCCCC[C@H](N)C(=O)O; Mpa = O=C(O)CCS

T1 sequence (P08514 32-887 limits assumed): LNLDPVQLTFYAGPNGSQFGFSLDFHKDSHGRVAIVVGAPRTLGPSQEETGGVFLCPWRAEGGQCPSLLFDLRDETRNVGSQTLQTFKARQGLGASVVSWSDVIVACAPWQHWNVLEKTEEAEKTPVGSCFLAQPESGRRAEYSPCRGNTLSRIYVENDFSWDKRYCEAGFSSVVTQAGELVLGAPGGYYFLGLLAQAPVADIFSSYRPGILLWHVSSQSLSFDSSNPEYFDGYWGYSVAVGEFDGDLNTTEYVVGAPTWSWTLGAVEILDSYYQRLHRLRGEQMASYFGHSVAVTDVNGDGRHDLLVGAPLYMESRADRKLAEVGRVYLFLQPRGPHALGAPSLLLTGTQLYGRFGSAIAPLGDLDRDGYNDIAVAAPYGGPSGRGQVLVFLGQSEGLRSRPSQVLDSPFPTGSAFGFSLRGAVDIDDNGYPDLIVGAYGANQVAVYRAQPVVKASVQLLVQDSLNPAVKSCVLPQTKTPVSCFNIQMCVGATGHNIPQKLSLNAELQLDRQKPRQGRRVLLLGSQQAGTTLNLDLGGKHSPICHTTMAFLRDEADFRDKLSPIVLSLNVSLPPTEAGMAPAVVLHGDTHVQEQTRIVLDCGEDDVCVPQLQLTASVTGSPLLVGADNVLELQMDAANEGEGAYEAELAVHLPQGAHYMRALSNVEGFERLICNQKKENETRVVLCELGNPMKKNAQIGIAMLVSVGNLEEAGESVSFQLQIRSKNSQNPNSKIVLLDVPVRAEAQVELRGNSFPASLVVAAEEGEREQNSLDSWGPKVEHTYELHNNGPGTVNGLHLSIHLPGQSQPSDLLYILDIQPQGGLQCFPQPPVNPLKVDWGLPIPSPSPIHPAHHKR
T1 sequence (P08514 891-1039 partner limits assumed): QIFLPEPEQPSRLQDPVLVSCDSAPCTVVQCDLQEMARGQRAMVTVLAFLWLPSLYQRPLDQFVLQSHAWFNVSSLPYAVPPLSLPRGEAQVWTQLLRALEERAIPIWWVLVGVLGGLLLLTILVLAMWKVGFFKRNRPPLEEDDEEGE
T1 sequence (P05106 27-788): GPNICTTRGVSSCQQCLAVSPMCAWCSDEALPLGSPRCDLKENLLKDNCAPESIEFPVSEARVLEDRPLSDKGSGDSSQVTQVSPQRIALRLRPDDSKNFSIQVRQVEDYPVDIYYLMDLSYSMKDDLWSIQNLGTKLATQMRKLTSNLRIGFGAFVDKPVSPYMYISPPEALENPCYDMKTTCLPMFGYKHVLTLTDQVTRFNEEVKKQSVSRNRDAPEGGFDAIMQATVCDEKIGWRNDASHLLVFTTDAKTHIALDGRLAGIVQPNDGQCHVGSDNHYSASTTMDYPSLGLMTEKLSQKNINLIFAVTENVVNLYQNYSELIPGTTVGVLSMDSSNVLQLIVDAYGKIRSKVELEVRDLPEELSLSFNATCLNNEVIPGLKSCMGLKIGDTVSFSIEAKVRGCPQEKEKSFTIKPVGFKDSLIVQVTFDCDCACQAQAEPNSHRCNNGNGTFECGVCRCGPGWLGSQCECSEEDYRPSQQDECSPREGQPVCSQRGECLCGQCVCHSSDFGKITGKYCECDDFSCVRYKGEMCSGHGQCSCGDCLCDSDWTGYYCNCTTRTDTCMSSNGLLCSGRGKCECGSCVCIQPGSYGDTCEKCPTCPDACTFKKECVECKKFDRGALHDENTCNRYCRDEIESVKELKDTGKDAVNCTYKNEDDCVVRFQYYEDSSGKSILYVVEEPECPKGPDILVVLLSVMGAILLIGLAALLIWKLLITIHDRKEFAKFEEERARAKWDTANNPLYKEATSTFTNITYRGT

With `N=C(N)NCCCC[C@@H]1NC(=O)CCSSC[C@@H](C(N)=O)NC(=O)[C@@H]2CCCN2C(=O)[C@H](Cc2c[nH]c3ccccc23)NC(=O)[C@H](CC(=O)O)NC(=O)CNC1=O` [eptifibatide] ([Mpa][hArg]GDWPC-NH2; disulfide 1-7), the “IC50 on collagen-induced platelet aggregation” value in the series on platelets [1] (in vitro, FIG. 1 panel A) came to 0.75 µg/mL (≈ 0.901 µM). For the same compound, the Tail bleeding time entry in “Tail bleeding time” is on record as “significantly prolong”. The “Collagen-induced platelet aggregation response” value in the series with platelets [2] is listed as “significantly suppressed”.
With Rhodostomin, the IC50 at integrin αIIbβ3 is 59.5 nM; in the series with platelets [3], 83.2 ± 10.4 nM; with platelets [1] (read-out: Platelet aggregation IC50 (nM), Collagen, collagen-induced) it was 66.8 nM; with integrin αvβ3, 13 ± 5.7 nM; in the series with platelets [4], 81.5 nM.

The IC50 is the concentration at which inhibition is half-maximal.
